Here are results for 5 molecules from patent EP1916248A1, “Furanone derivatives as cysteine protease inhibitors” (MEDIVIR AB, priority 2006, dated 2008).

Data set [1] has as its target T1, human cathepsin S (Homo sapiens, UniProt P25774).
T1 construct: made in house
The data set can be described thus: Cathepsin S Ki determination (fluorescent substrate boc-Val-Leu-Lys-AMC). The settings on record: baculovirus-expressed human cathepsin S, pH 6.5. The data set is classed as biochemical. The procedure:
The assay uses baculovirus-expressed human cathepsin S and the boc-Val-Leu-Lys-AMC fluorescent substrate available from Bachem in a 384 well plate format, in which 7 test compounds can be tested in parallel with a positive control comprising a known cathepsin S inhibitor comparator.
280 ul/well of 12.5% DMSO are added to rows B - H of two columns of a 96 deep well polypropylene plate. 70 ul/well of substrate is added to row A. 2 x 250 ul/well of assay buffer (100 mM Na phosphate, 100 mM NaCl, pH 6.5) is added to row A, mixed, and double diluted down the plate to row H.
100 ul/well of assay buffer is added to columns 2-5 and 7-12 of 4 rows of a 96 well V bottom polypropylene plate. 200 ul/well of assay buffer is added to columns 1 and 6.
2 ul of each 10 mM test compound is added to a separate well on row A, columns 1-10. Add 90 ul assay buffer containing 1 mM DTT and 2 nM cathepsin S to each well of rows B-H and 180 ul to row A. Mix row A using a multichannel pipette and double dilute to row G. Mix row H and read in the fluorescent spectrophotometer.
The second test compound is added to column 6 of the top row, the third to column 1 of the second row etc. Add 1 ul of comparator to column 6 of the bottom row. […]
Using the a distributor such as a Multidrop 384, add 30 ul/well to all wells of the assay plate and read in fluorescent spectrophotometer such as an Ascent. […]

Data set [2] addresses T2, cathepsin K (Homo sapiens, UniProt P43235).
T2 construct: made in house; host or cells: not fixed: E coli, Pichia or Baculovirus systems named as options
T2 sequence (P43235 115-329): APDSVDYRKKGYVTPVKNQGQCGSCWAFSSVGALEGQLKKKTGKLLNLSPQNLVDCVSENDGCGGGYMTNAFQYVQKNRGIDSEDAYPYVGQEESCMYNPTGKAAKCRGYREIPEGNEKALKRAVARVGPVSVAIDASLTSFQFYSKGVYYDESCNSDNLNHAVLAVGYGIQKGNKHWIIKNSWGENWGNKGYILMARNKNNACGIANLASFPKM
The data set can be described thus: Determination of cathepsin K proteolytic catalytic activity (Ki, fluorogenic peptide substrate). The format is biochemical. The settings on record: human recombinant enzyme. The procedure:
Convenient assays for cathepsin K are carried out using human recombinant enzyme, such as that described in PDB.
The recombinant cathepsin K can be expressed in a variety of commercially available expression systems including E coli, Pichia and Baculovirus systems. The purified enzyme is activated by removal of the prosequence by conventional methods.
The enzyme concentration used was 5 nM. The stock substrate solution was prepared at 10 mM in DMSO. […] The total DMSO concentration in the assay was kept below 3%. All assays were conducted at ambient temperature. Product fluorescence (excitation at 390 nm, emission at 460 nm) was monitored with a Labsystems Fluoroskan Ascent fluorescent plate reader.
Potential inhibitors are screened using the above assay with variable concentrations of test compound. Reactions were initiated by addition of enzyme to buffered solutions of substrate and inhibitor.

The target in data set [3] is human cathepsin L (Homo sapiens, UniProt P07711). The data set can be described thus: Cathepsin L Ki determination (fluorescent substrate H-D-Val-Leu-Lys-AMC). The settings on record: pH5.5. The format is biochemical. The procedure:
The procedure above with the following amendments is used for the determination of Ki for cathepsin L.
The enzyme is commercially available human cathepsin L (for example Calbiochem). The substrate is H-D-Val-Leu-Lys-AMC available from Bachem. The assay buffer is 100 mM sodium acetate 1 mM EDTA, pH5.5) The DMSO stock (10 mM in 100%DMSO) is diluted to 10% in assay buffer. Enzyme is prepared at 5 nM concentration in assay buffer plus 1 mM dithiothreitol just before use. 2 ul of 10 mM inhibitor made up in 100% DMSO is dispensed into row A. 10 ul of 50 uM substrate (=1/200 dilution of 10 mM stock in DMSO, diluted in assay buffer)
Potential inhibitors are screened using the above assay with variable concentrations of test compound. Reactions were initiated by addition of enzyme to buffered solutions of substrate and inhibitor. Ki values were calculated according to equation 1 v0 = (VS)/(KM (1 + (I)/(Ki)) + S) [formula] where v0 is the velocity of the reaction, V is the maximal velocity, S is the concentration of substrate with Michaelis constant of KM, and / is the concentration of inhibitor.
Representative compounds of the invention were assayed for cathepsin K potency and selectivity in the assays above. Note that the cathepsin L and S data is in micromolar, whereas the compounds are so potent against cathepsin K that the results are presented in nanomolar.

The nature of data set [4]: Permeability, transport through Caco-2 cell monolayers. The settings on record: human. (Passage across Caco-2 layers is used to estimate intestinal permeability.)
The conditions of data set [5]: reference compounds (markers) of the permeability assay; cited from earlier work.

The structures appear in SMILES notation.

T1 sequence (P25774 115-331): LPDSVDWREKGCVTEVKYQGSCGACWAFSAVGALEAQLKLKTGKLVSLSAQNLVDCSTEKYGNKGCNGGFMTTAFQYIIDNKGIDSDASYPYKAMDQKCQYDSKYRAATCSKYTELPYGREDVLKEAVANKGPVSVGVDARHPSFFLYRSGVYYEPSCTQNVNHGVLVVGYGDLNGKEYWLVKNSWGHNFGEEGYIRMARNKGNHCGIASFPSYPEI
human cathepsin L, sequence (P07711 114-333): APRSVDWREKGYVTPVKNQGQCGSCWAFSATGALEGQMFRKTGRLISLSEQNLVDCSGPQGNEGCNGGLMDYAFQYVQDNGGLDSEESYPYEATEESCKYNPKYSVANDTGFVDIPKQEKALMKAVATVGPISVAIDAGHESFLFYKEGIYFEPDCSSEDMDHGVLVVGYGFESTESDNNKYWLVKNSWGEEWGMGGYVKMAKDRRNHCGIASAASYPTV

`CCC1OCC(=O)C1NC(=O)C(CC(C)C)NC(=O)c1ccc(-c2csc(N3CCN(C)CC3)n2)cc1` (stereo not shown) [Example 3, N-[1-(2-Ethyl-4-oxo-tetrahydro-furan-3-ylcarbamoyl)-3-methyl-butyl]-4-[2-(4-methylpiperazin-1-yl)-thiazol-4-yl]-benzamide]: the Ki in data set [1] is 1800 nM; in data set [2], 1 nM; in data set [3], 500 nM. In addition, the Papp at 120 min, 10 uM in data set [4] came to 46 ×10⁻⁶ cm/s.
For `CCC1OCC(=O)C1NC(=O)C1(NC(=O)c2ccc(-c3csc(N4CCN(C)CC4)n3)cc2)CCCCC1` (stereo not shown) [Example 2, N-[1-(2-Ethyl-4-oxo-tetrahydro-furan-3-ylcarbamoyl)-cyclohexyl]-4-[2-(4-methylpiperazin-1-yl)-thiazol-4-yl]-benzamide], the Ki in data set [1] worked out at 770000 nM; in data set [3], 120000 nM. This molecule yielded a Papp at 120 min, 10 uM in data set [4] of 36 ×10⁻⁶ cm/s.
`CC(C)C[C@H](NC(=O)c1ccc(N2CCN(C)CC2)cc1)C(=O)N[C@H]1C(=O)CO[C@@H]1C` [Prior art, reference compound]: the Papp at 10 µM in data set [4] amounted to 1 ×10⁻⁶ cm/s.
Regarding `OC[C@@H](O)[C@@H](O)[C@H](O)[C@H](O)CO` [Mannitol], in data set [5], the “% absorption in man” value is listed as 16%.
For `CN(Cc1cnc2nc(N)nc(N)c2n1)c1ccc(C(=O)N[C@@H](CCC(=O)O)C(=O)O)cc1` [Methotrexate], the “% absorption in man” value in data set [5] is 20%.

What is called Ki is the equilibrium dissociation constant of an inhibitor or competing ligand from its target. By Papp is commonly meant the rate of passage across a membrane or cell layer, normalised by area and donor concentration.
